From the supplement of paper PMC7840683
Where a name gives a salt, the structure may show the parent alone. ± gives the standard deviation of the averaged measurements.

Test system: HepaRG
Assay: LDH release cytotoxicity, % of total lysis control; higher = more cytotoxic
Settings: 48 h
Outline: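 Eight-point half-log series of test chemicals, the highest at 100 µM, were given in duplicate for 48 h to single-lot HepaRG cells on collagen I-coated 96-well plates in serum-free induction medium with 0.5% DMSO. A Tecan Safire read resorufin fluorescence from CytoTox-ONE as a measure of LDH in 50 µL spent medium, with 0.1% Triton X in total lysis wells. Percent cytotoxicity was normalized to on-plate vehicle and total lysis controls and averaged over the duplicates.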

CC(=O)CC(c1ccccc1)C1C(=O)Oc2ccccc2C1=O (centres undefined) [Warfarin]
Settings	LDH release cytotoxicity [%]
0.03162 µM	-1.66 ± 0.38
0.1 µM	-1.26 ± 0.31
0.3162278 µM	-0.808 ± 0.67
1 µM	-0.262 ± 1.4
3.16228 µM	-0.866 ± 0.073
10 µM	-0.731 ± 0.26
31.6228 µM	0.385 ± 0.24
100 µM	2.56 ± 0.55

CCSC(=O)N1CCCCCC1 [Molinate]
Settings	LDH release cytotoxicity [%]
0.03162 µM	-2.17 ± 0.39
0.1 µM	-2.09 ± 0.56
0.3162278 µM	-1.9 ± 0.36
1 µM	-2.25 ± 0.77
3.16228 µM	-1.81 ± 0.052
10 µM	-1.34 ± 0.51
31.6228 µM	-0.237 ± 0.64
100 µM	1.3 ± 0.16

CCCCCCCC(=O)OC [Methyl octanoate]
Settings	LDH release cytotoxicity [%]
0.03162 µM	-0.862 ± 0.64
0.1 µM	-0.372 ± 0.27
0.3162278 µM	-1.13 ± 0.41
1 µM	-1.52 ± 0.096
3.16228 µM	-0.786 ± 0.032
10 µM	-1.1 ± 0.2
31.6228 µM	-1.29 ± 0.035
100 µM	0.214 ± 0.17

CCOC(=O)CC(O)(CC(=O)OCC)C(=O)OCC [Triethyl citrate]
Settings	LDH release cytotoxicity [%]
0.03162 µM	-0.555 ± 0.32
0.1 µM	-0.568 ± 0.47
0.3162278 µM	0.176 ± 0.48
1 µM	-0.693 ± 0.16
3.16228 µM	-0.115 ± 0.89
10 µM	0.0535 ± 0.21
31.6228 µM	-0.467 ± 0.89
100 µM	1.14 ± 0.85

CC1OC=CC(=O)C1=O (centres undefined) [Maltol]
Settings	LDH release cytotoxicity [%]
0.032888 µM	-1.82 ± 0.089
0.104 µM	-1.46 ± 1.1
0.328877 µM	-2.18 ± 0.095
1.04 µM	-3.62 ± 0.59
3.28877 µM	-2.64 ± 0.45
10.4 µM	-1.92 ± 0.23
32.8877 µM	-1.627 ± 0.0032
104 µM	0.353 ± 0.45

CC(=O)OC1(C(C)=O)CCC2C3C=C(Cl)C4=CC(=O)C5CC5C4(C)C3CCC21C (centres undefined) [Cyproterone acetate]
Settings	LDH release cytotoxicity [%]
0.03162 µM	-0.255 ± 0.092
0.1 µM	-1.64 ± 0.93
0.3162278 µM	-0.773 ± 0.19
1 µM	-0.77 ± 0.3
3.16228 µM	-0.346 ± 0.2
10 µM	0.58 ± 0.28
31.6228 µM	10.4 ± 0.73
100 µM	46.5 ± 1.5

CCCCCCCCC=CCCCCCCCC(=O)OCC(O)C1OCC(O)C1O (centres undefined) [Sorbitan, mono-(9Z)-9-octadecenoate]
Settings	LDH release cytotoxicity [%]
0.03162 µM	-0.746 ± 0.21
0.1 µM	-0.105 ± 0.41
0.3162278 µM	-1.38 ± 0.83
1 µM	-1.65 ± 0.91
3.16228 µM	-1.48 ± 1
10 µM	-1.08 ± 0.14
31.6228 µM	-0.835 ± 0.26
100 µM	-0.317 ± 0.22

CN(C)c1ccc(C(=C2C=CC(=[N+](C)C)C=C2)c2ccc(N(C)C)cc2)cc1 [Gentian Violet]
Settings	LDH release cytotoxicity [%]
0.03162 µM	-1.62 ± 0.081
0.1 µM	-2.46 ± 0.081
0.3162278 µM	-1.86 ± 0.074
1 µM	-1.96 ± 0.38
3.16228 µM	6.76 ± 0.71
10 µM	29.8 ± 0.12
31.6228 µM	51.8 ± 0.8
100 µM	54.6 ± 3.8

CSc1nc(NC(C)C)nc(NC(C)C)n1 [Prometryn]
Settings	LDH release cytotoxicity [%]
0.031623 µM	1.02 ± 1.4
0.1 µM	-3.89 ± 0.19
0.316228 µM	-3.27 ± 0.09
1 µM	-2.93 ± 0.23
3.16228 µM	-2.42 ± 0.25
10 µM	-2.73 ± 0.41
31.6228 µM	-3.26 ± 0.29
100 µM	-1.44 ± 0.069

COc1cc(C(C)C)c2c(c1)S(=O)(=O)N(COc1cc(=O)n3cccc(OCCN4CCCCC4)c3n1)C2=O
Settings	LDH release cytotoxicity [%]
0.0079057 µM	0.0307 ± 1.5
0.025 µM	0.0794 ± 0.093
0.0790569 µM	0.357 ± 0.16
0.25 µM	-0.592 ± 0.34
0.790569 µM	-0.444 ± 0.69
2.5 µM	-0.335 ± 0.28
7.90569 µM	-0.231 ± 0.07
25 µM	14.2 ± 0.87

O=C(O)c1ccccc1C(=O)OCc1ccccc1 [Monobenzyl phthalate]
Settings	LDH release cytotoxicity [%]
0.03162 µM	-6.32 ± 1.2
0.1 µM	-7.14 ± 0.13
0.3162278 µM	-7.38 ± 0.78
1 µM	-7.25 ± 1
3.16228 µM	-7.03 ± 0.21
10 µM	-6.25 ± 0.21
31.6228 µM	-5.79 ± 1.9
100 µM	-5.73 ± 0.38

CCCCCCC(CCCCCCCCCCC(=O)OCC(COC(C)=O)OC(C)=O)OC(C)=O (centres undefined) [Grinstad Soft-N-Safe]
Settings	LDH release cytotoxicity [%]
0.015811 µM	-1.88 ± 0.51
0.05 µM	-1.59 ± 1.3
0.158114 µM	-1.52 ± 1.4
0.5 µM	-1.93 ± 1.6
1.58114 µM	-2.07 ± 1.3
5 µM	-1.64 ± 1.7
15.8114 µM	-0.943 ± 1.3
50 µM	1.04 ± 1.8

CC1(C)C(C(=O)OC(C#N)c2cccc(Oc3ccccc3)c2)C1(C)C (centres undefined) [Fenpropathrin]
Settings	LDH release cytotoxicity [%]
0.03162 µM	-1.16 ± 1
0.1 µM	-1.28 ± 0.23
0.3162278 µM	0.259 ± 0.35
1 µM	-1.32 ± 0.98
3.16228 µM	-1.08 ± 0.83
10 µM	-0.114 ± 0.023
31.6228 µM	0.399 ± 0.42
100 µM	1.44 ± 0.57

O=C(O)CCCOc1ccc(Cl)cc1Cl [2,4-Dichlorophenoxybutyric acid]
Settings	LDH release cytotoxicity [%]
0.03162 µM	-2.25 ± 0.88
0.1 µM	-0.951 ± 0.37
0.3162278 µM	-1.77 ± 0.11
1 µM	-1.33 ± 0.28
3.16228 µM	-1.43 ± 0.78
10 µM	-0.351 ± 0.14
31.6228 µM	-1.14 ± 0.056
100 µM	0.81 ± 0.16

CC(C)COC(=O)c1ccccc1C(=O)OCC(C)C [Diisobutyl phthalate]
Settings	LDH release cytotoxicity [%]
0.03162 µM	-2.33 ± 0.23
0.1 µM	-2.4 ± 0.15
0.3162278 µM	-2.25 ± 0.78
1 µM	-2.06 ± 0.78
3.16228 µM	-2.34 ± 1.2
10 µM	-1.43 ± 1.4
31.6228 µM	-2.53 ± 0.83
100 µM	-1.03 ± 1.3

CC(C)(O)c1cnn2c(-c3ccc(F)c(-c4c(F)cccc4C#N)c3)cnc2n1
Settings	LDH release cytotoxicity [%]
0.03162 µM	-0.882 ± 0.92
0.1 µM	-1.19 ± 0.31
0.3162278 µM	-1.7 ± 0.43
1 µM	-1.5 ± 1.5
3.16228 µM	-1.51 ± 0.51
10 µM	-1.39 ± 0.59
31.6228 µM	1.16 ± 0.29
100 µM	8.979 ± 0.087

Cc1ccc2oc(CN(Cc3ccccc3)C(=O)Nc3c(F)cc(F)cc3F)c(-c3ccc(Cl)cc3)c2c1
Settings	LDH release cytotoxicity [%]
0.0279862 µM	-1.59 ± 1.2
0.0885 µM	-1.08 ± 0.43
0.279862 µM	-1.56 ± 0.098
0.885 µM	-1.22 ± 0.62
2.7986157 µM	-1.44 ± 0.12
8.85 µM	-1.09 ± 0.59
27.9862 µM	-0.962 ± 0.17
88.5 µM	2.85 ± 1.8

O=C(c1ccc(O)cc1O)c1ccc(O)cc1O [2,2',4,4'-Tetrahydroxybenzophenone]
Settings	LDH release cytotoxicity [%]
0.031623 µM	-0.783 ± 0.28
0.1 µM	-1.13 ± 1.1
0.316228 µM	-1.37 ± 0.79
1 µM	-1.52 ± 0.89
3.16228 µM	-2.25 ± 0.71
10 µM	-1.76 ± 0.33
31.6228 µM	1.26 ± 0.54
100 µM	35.3 ± 1.2
